According to patent US7384952B2, “Pyrazolopyrimidine compound and a process for preparing the same” (Mitsubishi Tanabe Pharma Corporation, priority 2003, dated 2008):

Biological target: SK channel
Experiment: competitive apamin-binding inhibition assay (same manner as WO02/079189, Experiment 1)
Settings: competitive binding assay against apamin, a selective SK channel blocker; read-out: apamin-binding inhibitory activity (IC50)

CCOc1cccc(Cn2ncc3c(N4CCN(C(=O)c5ccc(N(CCN(C)C)C(=O)C6CC6)cc5)CC4)ncnc32)c1 [1-(3-ethoxybenzyl)-4-[4-[4-[N-(cyclopropyl-carbonyl)-N-[2-(dimethylamino)ethyl]amino]benzoyl]piperazin-1-yl]-1H-pyrazolo[3,4-d]pyrimidine]
IC50: 50 nM
